Experimental data taken from US5198336A, “Bioassay for chemicals which generate prooxidant states” (Wisconsin Alumni Research Foundation, priority 1989, dated 1993).

Tested on: submitochondrial electron transport particles (ETP) having competent electron transport enzyme complex I
Experiment: facilitated electron withdrawal bioassay with SOD-depleted submitochondrial electron transport particles (adrenochrome formation, absorbance at 480 nm)
Format: biochemical, bovine (beef heart)
Conditions: for lowest observable effect concentration (LOEC): concentration giving a response three standard deviations above mean control, HEPES buffer pH 7.2, 1.5 mM epinephrine, 0.5 mg ETP, 125 uM NADH, 10 minute incubation; for lowest observable effect concentration (LOEC) / relative potency to induce a prooxidant state (FIG. 4): 0.2 ug per ml antimycin A; for relative potency to induce a prooxidant state (FIG. 4): ranking among the five agents tested, 0 to 10 ug per ml toxicant
Procedure: The practice of the present invention began with the creation of submitochondrial electron transport particles (ETP) isolated from beef hearts. These are also referred to as submitochondrial particles. The mitochondria were isolated from bovine heart muscle by the method of Blair, supra. The superoxide dismutase-depleted ETP particles were prepared by sonicating the thawed mitochondria for two minutes in a medium containing 0.25M sucrose and 2 mM EDTA, pH 7.5, at a protein concentration of 25 mg per ml. The result was diluted with an equal volume of 0.25M sucrose and adjusted to a pH of 7.5 after which it was centrifuged for 40 minutes at 105,000×g. The resulting ETP particles were washed in ten volumes of 0.25M sucrose and sedimented by centrifugation. After treatment the ETP particles were stored frozen in buffered 0.25M sucrose at a protein concentration of 20 mg per ml.
The test medium contained 50 mM HEPES buffer, 1.5 mM epinephrine and 0.4 uM antimycin. The medium was adjusted to a pH of 7.2 with 5M potassium hydroxide and dispensed in 1.8 ml aliquots into 1-CM path length glass cuvettes. Either aqueous diluent or the test sample was added in a volume of 20-50 ul so that the final concentration ranged between 0 and 100 ug per ml. Following the addition of 0.5 mg of the SOD-depleted ETP particles suspended in a 0.1 ml 50 mM HEPES buffer, the cuvettes were covered with parafilm and inverted three times to mix the contents. First a base line absorbance reading was taken by the spectrophotometer set for 480 nm.
After the base line reading was taken, the reaction was started by adding 50 ul of 5 mM NADH. The final absorbance readings were then taken after a 10 minute incubation at room temperature. The final absorbance readings were used to calculate a lowest observable effect concentration (LOEC) for each of the chemicals tested. […] It is intended that the LOEC value be analogous to the limited detection value used for environmental samples subject to conventional analysis.
All experiments summarized in this table and in FIG. 4 were conducted with 2 ml HEPES buffer, a pH of 7.2, 1.5 mM epinephrine, 0.2 ug per ml antimycin A, 0.5 mg ETP, 125 uM NADH and 0 to 10 ug per ml of the test toxicant.

Structure (SMILES)	lowest observable effect concentration (LOEC)	relative potency to induce a prooxidant state (FIG. 4)	effect of antimycin A or rotenone on the response to paraquat (FIG. 3) (with vs without 0.2 ug per ml antimycin A or 0.2 ug per ml rotenone, absorbance at 480 nm)
O=[N+]([O-])c1cc[n+]([O-])c2ccccc12 [4-Nitroquinoline-N-oxide]	1600 µg/L		
COc1cccc2c1C(=O)c1c(O)c3c(c(O)c1C2=O)C[C@@](O)(C(=O)CO)C[C@@H]3O[C@H]1C[C@H](N)[C@H](O)[C@H](C)O1 [Adriamycin]	6300 µg/L	weakest	
c1cc[n+]2c(c1)-c1cccc[n+]1CC2 [Diquat]	1600 µg/L		
C[n+]1ccc(-c2cc[n+](C)cc2)cc1 [Paraquat]	3500 µg/L		increases the rate at which paraquat can draw electrons from the electron transport cascade
O=S(=O)(O)c1ccccc1N=Nc1c(S(=O)(=O)O)cc2cc(S(=O)(=O)O)c(N=Nc3ccccc3S(=O)(=O)O)c(O)c2c1O [Sulfonazo III]	320 µg/L	strongest inducer of the prooxidant states	
